Laboratory results published in patent publication US12043632B2, “6-heteroaryloxy benzimidazoles and azabenzimidazoles as JAK2 inhibitors” (Ajax Therapeutics, Inc., priority 2020, dated 2024).

target: T1, JAK2 (JH1domain-catalytic, Y1007F,Y1008F) kinase (Homo sapiens, UniProt O60674, Y1007F/Y1008F); assay: JAK2 JH1 Domain Binding Assay; settings: qPCR readout
T1 construct: JAK2 (JH1domain-catalytic, Y1007F,Y1008F) kinase was expressed as N-terminal fusion; made in house; host or cells: transiently transfected HEK293 cells
T1 sequence (O60674 849-1124 Y1007F/Y1008F limits assumed): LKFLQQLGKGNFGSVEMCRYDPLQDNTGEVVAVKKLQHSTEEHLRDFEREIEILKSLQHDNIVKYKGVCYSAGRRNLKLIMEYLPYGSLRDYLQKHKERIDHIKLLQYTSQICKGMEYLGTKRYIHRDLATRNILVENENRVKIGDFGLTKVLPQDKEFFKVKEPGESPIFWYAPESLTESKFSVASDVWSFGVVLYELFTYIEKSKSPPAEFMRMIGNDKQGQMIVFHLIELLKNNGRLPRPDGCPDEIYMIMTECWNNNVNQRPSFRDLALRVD

Kd	Compound
< 10 nM	Cn1cc(C(F)(F)F)cc(Nc2nc3ncc(Oc4cnc5[nH]ncc5c4)c(Cl)c3n2C)c1=O [Example I-261, 3-((6-((1H-pyrazolo[3,4-b]pyridin-5-yl)oxy)-7-chloro-1-methyl-1H-imidazo[4,5-b]pyridin-2-yl)amino)-1-methyl-5-(trifluoromethyl)pyridin-2(1H)-one]
< 10 nM	CNc1nccn2ncc(Oc3cnc4nc(Nc5cc(CN6CCC6)cc(C(F)(F)F)c5)n(C)c4c3Cl)c12 [Example I-263, N-(3-(azetidin-1-ylmethyl)-5-(trifluoromethyl)phenyl)-7-chloro-1-methyl-6-((4-(methylamino)pyrazolo[1,5-a]pyrazin-3-yl)oxy)-1H-imidazo[4,5-b]pyridin-2-amine]
10 to 50 nM	CNc1nccn2ncc(Oc3cnc4nc(Nc5cc(CN6CC(O)C6)cc(C(F)(F)F)c5)n(C)c4c3Cl)c12 [Example I-264, 1-(3-((7-chloro-1-methyl-6-((4-(methylamino)pyrazolo[1,5-a]pyrazin-3-yl)oxy)-1H-imidazo[4,5-b]pyridin-2-yl)amino)-5-(trifluoromethyl)benzyl)azetidin-3-ol]
< 10 nM	Cn1cc(C(F)(F)F)cc(Nc2nc3ncc(Oc4cnc5[nH]ccc5c4)c(C#N)c3n2C)c1=O [Example I-265, 6-((1H-pyrrolo[2,3-b]pyridin-5-yl)oxy)-1-methyl-2-((1-methyl-2-oxo-5-(trifluoromethyl)-1,2-dihydropyridin-3-yl)amino)-1H-imidazo[4,5-b]pyridine-7-carbonitrile]
< 10 nM	Cn1c(F)c(C2CC2)cc(Nc2nc3ncc(Oc4cnn5ccncc45)c(Cl)c3n2C)c1=O [Example I-266, 3-((7-chloro-1-methyl-6-(pyrazolo[1,5-a]pyrazin-3-yloxy)-1H-imidazo[4,5-b]pyridin-2-yl)amino)-5-cyclopropyl-6-fluoro-1-methylpyridin-2(1H)-one]
50 to 1000 nM	Cc1nc(Nc2nc3ncc(Oc4cnn5ccncc45)c(Cl)c3n2C)nc(C)c1N1CCC1 [Example I-268, N-(5-(azetidin-1-yl)-4,6-dimethylpyrimidin-2-yl)-7-chloro-1-methyl-6-(pyrazolo[1,5-a]pyrazin-3-yloxy)-1H-imidazo[4,5-b]pyridin-2-amine]
< 10 nM	CN(C)[C@@H]1CCN(Cc2cc(Nc3nc4ncc(Oc5cnn6ccncc56)c(Cl)c4n3C)cc(C(F)(F)F)c2)C1 [Example I-271, (R)-7-chloro-N-(3-((3-(dimethylamino)pyrrolidin-1-yl)methyl)-5-(trifluoromethyl)phenyl)-1-methyl-6-(pyrazolo[1,5-a]pyrazin-3-yloxy)-1H-imidazo[4,5-b]pyridin-2-amine]
10 to 50 nM	COCCOc1nccn2ncc(Oc3cnc4nc(Nc5cc(C(F)(F)F)n(C6CC7(COC7)C6)n5)n(C)c4c3Cl)c12 [Example I-273, N-(1-(2-oxaspiro[3.3]heptan-6-yl)-5-(trifluoromethyl)-1H-pyrazol-3-yl)-7-chloro-6-((4-(2-methoxyethoxy)pyrazolo[1,5-a]pyrazin-3-yl)oxy)-1-methyl-1H-imidazo[4,5-b]pyridin-2-amine]
10 to 50 nM	CN(C)c1cc(Nc2nc3ncc(Oc4cnn5ccncc45)c(Cl)c3n2C)cc(C(F)(F)F)n1 [Example I-274, N^4-(7-chloro-1-methyl-6-(pyrazolo[1,5-a]pyrazin-3-yloxy)-1H-imidazo[4,5-b]pyridin-2-yl)-N^2,N^2-dimethyl-6-(trifluoromethyl)pyridine-2,4-diamine]
10 to 50 nM	CNc1nccn2ncc(Oc3cnc4nc(Nc5cc(OCC6CN(C)C6)cc(C(F)(F)F)c5)n(C)c4c3Cl)c12 [Example I-275, 7-chloro-1-methyl-6-((4-(methylamino)pyrazolo[1,5-a]pyrazin-3-yl)oxy)-N-(3-((1-methylazetidin-3-yl)methoxy)-5-(trifluoromethyl)phenyl)-1H-imidazo[4,5-b]pyridin-2-amine]
10 to 50 nM	CNc1nccn2ncc(Oc3cnc4nc(Nc5cc(C(F)(F)F)n([C@@H]6CCOC6)n5)n(C)c4c3Cl)c12 [Example I-276, (R)-7-chloro-1-methyl-6-((4-(methylamino)pyrazolo[1,5-a]pyrazin-3-yl)oxy)-N-(1-(tetrahydrofuran-3-yl)-5-(trifluoromethyl)-1H-pyrazol-3-yl)-1H-imidazo[4,5-b]pyridin-2-amine]
< 10 nM	Cn1c(Nc2cc(CN3CCCC3)cc(C(F)(F)F)c2)nc2ncc(Oc3cnn4ccncc34)c(Cl)c21 [Example I-277, 7-chloro-1-methyl-6-(pyrazolo[1,5-a]pyrazin-3-yloxy)-N-(3-(pyrrolidin-1-ylmethyl)-5-(trifluoromethyl)phenyl)-1H-imidazo[4,5-b]pyridin-2-amine]
< 10 nM	CC(=O)N1CC2(CC(n3nc(Nc4nc5ncc(Oc6cnn7ccccc67)c(Cl)c5n4C)cc3C(F)(F)F)C2)C1 [Example I-278, 1-(6-(3-((7-chloro-1-methyl-6-(pyrazolo[1,5-a]pyridin-3-yloxy)-1H-imidazo[4,5-b]pyridin-2-yl)amino)-5-(trifluoromethyl)-1H-pyrazol-1-yl)-2-azaspiro[3.3]heptan-2-yl)ethan-1-one]
< 10 nM	Cn1cc(C(F)(F)F)cc(Nc2nc3ncc(Oc4cnn5ccc(N6CCOCC6)cc45)c(C#N)c3n2C)c1=O [Example I-281, 1-methyl-2-((1-methyl-2-oxo-5-(trifluoromethyl)-1,2-dihydropyridin-3-yl)amino)-6-((5-morpholinopyrazolo[1,5-a]pyridin-3-yl)oxy)-1H-imidazo[4,5-b]pyridine-7-carbonitrile]
10 to 50 nM	CNc1nccn2ncc(Oc3cnc4nc(Nc5cc(CN6CC[C@@H](N(C)C)C6)cc(C(F)(F)F)c5)n(C)c4c3Cl)c12 [Example I-282, (R)-7-chloro-N-(3-((3-(dimethylamino)pyrrolidin-1-yl)methyl)-5-(trifluoromethyl)phenyl)-1-methyl-6-((4-(methylamino)pyrazolo[1,5-a]pyrazin-3-yl)oxy)-1H-imidazo[4,5-b]pyridin-2-amine]
10 to 50 nM	CN(C)[C@@H]1CCN(Cc2cc(C(F)(F)F)cc(Nc3nc4ncc(Oc5cnn6ccncc56)c(Cl)c4n3C)c2F)C1 [Example I-283, (R)-7-chloro-N-(3-((3-(dimethylamino)pyrrolidin-1-yl)methyl)-2-fluoro-5-(trifluoromethyl)phenyl)-1-methyl-6-(pyrazolo[1,5-a]pyrazin-3-yloxy)-1H-imidazo[4,5-b]pyridin-2-amine]
10 to 50 nM	CNc1nccn2ncc(Oc3cnc4nc(Nc5cc(CN6CCCC6)cc(C(F)(F)F)c5)n(C)c4c3Cl)c12 [Example I-284, 7-chloro-1-methyl-6-((4-(methylamino)pyrazolo[1,5-a]pyrazin-3-yl)oxy)-N-(3-(pyrrolidin-1-ylmethyl)-5-(trifluoromethyl)phenyl)-1H-imidazo[4,5-b]pyridin-2-amine]
10 to 50 nM	CN(C)[C@H]1CCN(Cc2cc(C(F)(F)F)cc(Nc3nc4ncc(Oc5cnn6ccncc56)c(Cl)c4n3C)c2F)C1 [Example I-285, (S)-7-chloro-N-(3-((3-(dimethylamino)pyrrolidin-1-yl)methyl)-2-fluoro-5-(trifluoromethyl)phenyl)-1-methyl-6-(pyrazolo[1,5-a]pyrazin-3-yloxy)-1H-imidazo[4,5-b]pyridin-2-amine]
10 to 50 nM	CNc1nccn2ncc(Oc3cnc4nc(Nc5cc(CN6CC[C@H](N(C)C)C6)cc(C(F)(F)F)c5)n(C)c4c3Cl)c12 [Example I-286, (S)-7-chloro-N-(3-((3-(dimethylamino)pyrrolidin-1-yl)methyl)-5-(trifluoromethyl)phenyl)-1-methyl-6-((4-(methylamino)pyrazolo[1,5-a]pyrazin-3-yl)oxy)-1H-imidazo[4,5-b]pyridin-2-amine]
10 to 50 nM	Cc1nc(Nc2nc3ncc(Oc4cnn5ccncc45)c(Cl)c3n2C)nc(C)c1N1CCCC1 [Example I-287, 7-chloro-N-(4,6-dimethyl-5-(pyrrolidin-1-yl)pyrimidin-2-yl)-1-methyl-6-(pyrazolo[1,5-a]pyrazin-3-yloxy)-1H-imidazo[4,5-b]pyridin-2-amine]
10 to 50 nM	Cn1cc(C(F)(F)F)cc(Nc2nc3ncc(Oc4cnc5[nH]cc(F)c5c4)c(Cl)c3n2C)c1=O [Example I-288, 3-((7-chloro-6-((3-fluoro-1H-pyrrolo[2,3-b]pyridin-5-yl)oxy)-1-methyl-1H-imidazo[4,5-b]pyridin-2-yl)amino)-1-methyl-5-(trifluoromethyl)pyridin-2(1H)-one]
10 to 50 nM	Cn1cc(C(F)(F)F)cc(Nc2nc3ncc(Oc4cnc5[nH]cc(F)c5c4)c(C#N)c3n2C)c1=O [Example I-289, 6-((3-fluoro-1H-pyrrolo[2,3-b]pyridin-5-yl)oxy)-1-methyl-2-((1-methyl-2-oxo-5-(trifluoromethyl)-1,2-dihydropyridin-3-yl)amino)-1H-imidazo[4,5-b]pyridine-7-carbonitrile]
10 to 50 nM	Cc1cc2cc(Oc3cnc4nc(Nc5cc(C(F)(F)F)cn(C)c5=O)n(C)c4c3C#N)cnc2[nH]1 [Example I-290, 1-methyl-6-((2-methyl-1H-pyrrolo[2,3-b]pyridin-5-yl)oxy)-2-((1-methyl-2-oxo-5-(trifluoromethyl)-1,2-dihydropyridin-3-yl)amino)-1H-imidazo[4,5-b]pyridine-7-carbonitrile]
< 10 nM	COc1ccc2c(Oc3cnc4nc(Nc5cc(C(F)(F)F)cn(C)c5=O)n(C)c4c3C#N)cnn2c1 [Example I-291, 6-((6-methoxypyrazolo[1,5-a]pyridin-3-yl)oxy)-1-methyl-2-((1-methyl-2-oxo-5-(trifluoromethyl)-1,2-dihydropyridin-3-yl)amino)-1H-imidazo[4,5-b]pyridine-7-carbonitrile]
< 10 nM	Cn1cc(C(F)(F)F)cc(Nc2nc3ncc(Oc4cnn5cc(C#N)ccc45)c(Cl)c3n2C)c1=O [Example I-292, 3-((7-chloro-1-methyl-2-((1-methyl-2-oxo-5-(trifluoromethyl)-1,2-dihydropyridin-3-yl)amino)-1H-imidazo[4,5-b]pyridin-6-yl)oxy)pyrazolo[1,5-a]pyridine-6-carbonitrile]
